# Measurements as given in US4895867A, “2-(5-phenyl-2-furanyl)imidazoles useful as cardiotonic agents” (Norwich Eaton Pharmaceuticals, Inc., priority 1988, dated 1990).
# Counter-ions that a name gives are not always drawn.
# Tested on: right ventricle of guinea pig
# Assay: In vivo guinea pig ventricular pressure measurement (Test Method II)
# Settings: Cavia porcellus, iv; calculated dose required to increase the right ventricular pressure by 50% from the control level, anesthetized guinea pig
# Procedure: An additional or alternative method for testing the cardiotonic activity of compounds of the present invention is set forth in the following reference: Beek, O. G., "A Small Animal Model for Monitoring Inotropic Responses to Cardiotonic Agents", Journal of Pharmacological Methods, Vol. 7 (1982), pp. 321-329. Right ventricular inotropic responses are measured in an anesthetized, close-chested guinea pig using a pressure-sensitive transducer inserted into the right ventricle of the heart via the right jugular vein.
# In vivo guinea pig ventricular pressure measurement
# Unfasted male Hartley albino guinea pigs, weighing 450-650 g (Charles River Breeding Laboratories, Inc., Wilmington, MA) were used in these studies. Under ethyl carbamate (urethane) anesthesia (1.25 g/kg i.p.), the trachea was cannulated through a mid-ventral cervical incision. The left carotid artery was cannulated with PE-50 tubing (Clay Adams Co., Parsippany, NJ) filled with 100 µg/ml heparin for blood pressure monitoring, and the left jugular vein was cannulated (catheter filled with saline) for drug administration. A 3Fr Millar Mikro-Tip ventricular pressure catheter (Millar instruments, Inc., Houston, Texas) was positioned in the right ventricle via the right jugular vein. A thoracotomy was performed and the guinea pig was respired by a rodent respirator (Model 680, Harvard Apparatus Co., Millis, MA) at a rate of 8 ml/stroke×40 strokes/minute. A modified Brodie strain gauge (Warren Research Products, Charleston, South Carolina) was sutured on the right ventricle parallel to, but avoiding, the intraventricular septum. The rectal body temperature of 37° C. was maintained by an electronic temperature controlled lamp. The animals were left undisturbed for 60 minutes before being used for an experiment.
# A single i.v. bolus does of 0.3 μg/kg isoproterenol was administered followed by a 0.2 ml saline flush prior to and at the end of each experiment to check the viability and responsiveness of each animal. Usually a vehicle does in a volume equal to the single largest volume of compound to be administered was intravenously injected 20-30 minutes after the initial isoproterenol injection when parameters had returned to baseline levels. A non-cumulative dose response curve was determined for each compound using a minimum of 3 doses. Time between doses for all compounds was dependent upon the time needed for all parameters to return to baseline or stable levels. A minimum of 3 animals per dose level was tested for each compound.
# Results were expressed as percent changes from pretreatment baseline for all parameters measured. The ED50 values of ventricular pressure changes (calculated dose required to increase the right ventricular pressure by 50% from the control level) of test compounds were determined by regression analysis.
# Compounds having the following chemical structure were tested for cardiotonic activity according to one or both of the above test methods: [drawing 3] Determinations of contractile force EC50 according to Test Method I and ventricular pressure ED50 according to Test Method II which have been obtained for the compounds are provided in Table I: […]
row,SMILES,ED50
1,Clc1ccc(-c2ccc(-c3ncc[nH]3)o2)cc1 [Example 2],0.31 mg/kg
2,COc1ccc(-c2ccc(-c3ncc[nH]3)o2)cc1OC [Example 4],3.16 mg/kg
3,O=[N+]([O-])c1ccccc1-c1ccc(-c2ncc[nH]2)o1 [Example 5],29.1 mg/kg
4,c1ccc(-c2ccc(-c3ncc[nH]3)o2)cc1 [Example 6],1.98 mg/kg
5,"Brc1ccccc1-c1ccc(-c2ncc[nH]2)o1 [Example 8, 2-[5-(2-Bromophenyl)-2-furanyl]imidazole Hydrochloride Tetartohydrate]",0.8 mg/kg
6,Clc1ccc(-c2ccc(-c3ncc[nH]3)o2)c(Cl)c1 [Example 12],2.05 mg/kg

# Tested on: guinea pig atrial muscle
# Assay: In vitro guinea pig atrial muscle contractile force measurement (Test Method I)
# Type: cell-based
# Settings: Cavia porcellus; calculated concentration required to increase the contractile force by 50% from the control level; isolated left atria, 30° C., mean of at least three tissues
# Description: Kaplan, "Strategy for the Discovery and Development of a Positive Inotropic Agent", Pharmacology and Therapeutics, Vol. 16 (1982), pp. 303-330. This test measures the effects of such compounds on the contractility of cardiac tissue excised from the atrial muscle of a guinea pig. In vitro guinea pig atrial muscle contractile force measurement Unfasted male Hartley albino guinea pigs, weighing 450-650 g (Charles River Breeding Laboratories, Inc., Wilmington, MA) were used in these studies. They were killed by cranial concussion at the beginning of the experiment. The heart was quickly removed into a Petri dish filled with a solution of the following composition (in water): NaCl 99.0 mM; Dextrose 11.0 mM; […]; MgSO4 1.2 mM; NaH2 PO4 1.3 mM; CaCl2.2H2 O 2.5 mM; NaHCO3 25.01 mM; bubbled with 95% 02 :5% CO2 at room temperature. A triple O silk ligature was tied to the edge of the left atrial appendage, using an intestinal needle. The appendage was cut off; a section was cut away from the wall which faced the heart, retaining a sheet of tissue from the outer face of the atrium. The tissue was mounted from a pair of point stimulating electrode hooks with 1 gram of tension in an organ bath maintained at 30° C. The ligature was tied to a Grass FT-103 force-displacement transducer, and responses were measured in grams of developed tension with a Grass Model 7 polygraph (Grass Instrument Co., Quincy, MA). The left atria were stimulated electrically with the following square wave parameters: 3 v; 4 msec 1 Hz, as soon as they were put into the baths. After a short time (3-5 minutes), voltage was increased until stable responses were obtained (10-25% above threshold). The tissues were allowed to equilibrate under such stimulation for at least 1 hour before experimentation. The test compounds were dissolved in water, if water soluble, or if not, in tetrahydrofurfuryl alcohol (Eastman D5C) or in an organic vehicle containing 90% polyethylene glycol, 6% ethanol, 3% propylene glycol and 1% H2 O). (Test compound solution concentrations were selected to keep injection volumes between 1 and 10 μl). Isoproterenol (0.54 to 5.4 nM) was given at the beginning of each experiment to confirm the viability and responsiveness of the tissues. Test agents were given in several graded doses in logarithmic increments. Responsiveness to isoproterenol was also assessed at the end of the experiment unless other positive drug responses were obtained near the end of the experiment. Results were expressed as percent change from control for contractile force. The EC50 value (calculated concentration required to increase the contractile force by 50% from the control level) for each tissue was obtained, where possible, by regression analysis. The mean of the EC50 values was obtained from at least three individual tissues for each compound tested. Compounds having the following chemical structure were tested for cardiotonic activity according to one or both of the above test methods: [drawing 3] Determinations of contractile force EC50 according to Test Method I and ventricular pressure ED50 according to Test Method II which have been obtained for the compounds are provided in Table I: […]
row,SMILES,EC50
1,O=[N+]([O-])c1ccc(-c2ccc(-c3ncc[nH]3)o2)cc1 [Example 1],260 µM
2,Clc1ccc(-c2ccc(-c3ncc[nH]3)o2)cc1 [Example 2],3.5 µM
3,FC(F)(F)c1cccc(-c2ccc(-c3ncc[nH]3)o2)c1 [Example 3],6.5 µM
4,COc1ccc(-c2ccc(-c3ncc[nH]3)o2)cc1OC [Example 4],190 µM
5,O=[N+]([O-])c1ccccc1-c1ccc(-c2ncc[nH]2)o1 [Example 5],60 µM
6,c1ccc(-c2ccc(-c3ncc[nH]3)o2)cc1 [Example 6],22.9 µM
7,CC(=O)c1ccc(-c2ccc(-c3ncc[nH]3)o2)cc1 [Example 7],40 µM
8,"Brc1ccccc1-c1ccc(-c2ncc[nH]2)o1 [Example 8, 2-[5-(2-Bromophenyl)-2-furanyl]imidazole Hydrochloride Tetartohydrate]",5.7 µM
9,Clc1ccccc1-c1ccc(-c2ncc[nH]2)o1 [Example 9],3.7 µM
10,Fc1ccccc1-c1ccc(-c2ncc[nH]2)o1 [Example 10],7.2 µM
11,FC(F)(F)c1ccccc1-c1ccc(-c2ncc[nH]2)o1 [Example 11],28.2 µM
12,Clc1ccc(-c2ccc(-c3ncc[nH]3)o2)c(Cl)c1 [Example 12],1.3 µM
13,Clc1ccc(-c2ccc(-c3ncc[nH]3)o2)cc1Cl [Example 13],5.4 µM
14,Brc1ccc(-c2ccc(-c3ncc[nH]3)o2)cc1 [Example 14],1.3 µM
15,Fc1ccc(-c2ccc(-c3ncc[nH]3)o2)cc1 [Example 15],33.4 µM
16,FC(F)(F)c1ccc(-c2ccc(-c3ncc[nH]3)o2)cc1 [Example 16],3 µM
17,COc1ccc(-c2ccc(-c3ncc[nH]3)o2)c([N+](=O)[O-])c1 [Example 17],8.2 µM
18,Cn1ccnc1-c1ccc(-c2ccccc2Br)o1 [Example 18],21.1 µM
19,"Cc1ccc(-c2ccc(-c3ncc[nH]3)o2)cc1 [Example 19, 2-[5-(4-methylphenyl)-2-furanyl]-1H-imidazole hydrochloride]",3.7 µM

# Second part, the molecule after the results:
row,EC50,SMILES
1,6.8 µM,"CC(C)c1ccc(-c2ccc(-c3ncc[nH]3)o2)cc1 [Example 20, 2-[5-[4-(1-Methylethyl)phenyl]-2-furanyl]-1H-imidazole Hydrochloride]"
2,8 µM,Brc1ccc(-c2ccc(-c3ncc[nH]3)o2)c(Br)c1 [Example 21]
3,> 100 µM,Cn1ccnc1-c1ccc(-c2ccc(Br)cc2)o1 [Example 22]
4,0.5 µM,"Cc1c[nH]c(-c2ccc(-c3ccc(Br)cc3)o2)n1 [Example 23, 2-[5-(4-Bromophenyl)-2-furanyl]-4-methyl-1H-imidazole Hydrochloride]"
5,> 100 µM,Brc1cccc(Br)c1-c1ccc(-c2ncc[nH]2)o1 [Example 24]
6,1.5 µM,Cc1ccc(-c2ccc(-c3ncc[nH]3)o2)c(Br)c1 [Example 25]
7,4 µM,FC(F)(F)c1cc(-c2ccc(-c3ncc[nH]3)o2)ccc1Br [Example 26]
8,10.3 µM,Ic1ccc(-c2ccc(-c3ncc[nH]3)o2)cc1 [Example 27]
9,28 µM,COc1ccc(-c2ccc(-c3ncc[nH]3)o2)cc1 [Example 28]
10,3.4 µM,"COc1cc(-c2ccc(-c3ncc[nH]3)o2)ccc1Br [Example 29, 2-[5-(4-Bromo-3-methoxyphenyl)-2-furanyl]-1H-imidazole Hydrochloride]"
11,21.2 µM,"CCn1ccnc1-c1ccc(-c2ccccc2Br)o1 [Example 30, 2-[5-(2-Bromophenyl)-2-furanyl]-1-ethyl-1H-imidazole Hydrochloride]"
12,1.9 µM,"Cc1cc(Br)ccc1-c1ccc(-c2ncc[nH]2)o1 [Example 31, 2-[5-(4-Bromo-2-methylphenyl)-2-furanyl]-1H-imidazole Hydrochloride]"
13,1.7 µM,"Cc1c[nH]c(-c2ccc(-c3ccccc3Br)o2)n1 [Example 32, 2-[5-(2-Bromophenyl)-2-furanyl]-4-methyl-1H-imidazole Hydrochloride]"
14,50.2 µM,"Cc1cnc(-c2ccc(-c3ccc(Br)cc3)o2)n1C [Example 33, 2-[5-(4-Bromophenyl)-2-furanyl]-1,5-dimethyl-1H-imidazole Hydrochloride]"
15,> 100 µM,"Cc1cn(C)c(-c2ccc(-c3ccc(Br)cc3)o2)n1 [Example 34, 2-[5-(4-Bromophenyl)-2-furanyl]-1,4-dimethyl-1H-imidazole Hydrochloride Hydrate]"
